Patent US11413337B2, “Peptide conjugated particles for the treatment of inflammation” (Northwestern University, priority 2012, dated 2022)
Where no end group is shown, it is not given here.

Assays:
[1] = tested on: cervical spinal cord; experiment: spinal cord histology and in vivo imaging in R-EAE; design: species or system mouse; details: spinal cord, day 40
Procedure: An additional therapeutic tolerance strategy was performed by delivering PLP139-151-PLG or OVA323-339 PLG to mice. […] Mice were treated with PLP-PLG or OVA323-339-PLG and the tissue was retrieved at day 40. The cervical spinal cord was isolated and sectioned to investigate the immune response within the CNS, which underlies the pathology of R-EAE and multiple sclerosis.
The clinical scores and percent incidence of EAE were determined (FIG. 10B) and the spinal cords observed via in vivo imaging (FIGS. 10A and 11). […] The bar graphs give the numerical numbers to the signal strength shown in the brain and SC scans.

[2] = tested on: Relapsing Experimental Autoimmune Encephalitis (R-EAE); experiment: prophylactic tolerance in PLP139-151/CFA-induced R-EAE, particles given day −7; assay type: in vivo, mouse; details: treated day −7 relative to immunization
[3] = tested on: Th1 and Th17 responses; experiment: induction of antigen-specific Th1 and Th17 responses, draining lymph node cells; assay type: in vivo, mouse; details: BALB/c mice, iv Day −7, measured Day 10
Procedure: To determine whether administration of antigen-coupled particles inhibit induction of T-helper cells, either MOG35-55-PLG or OVA323-339-PLG particles were administered intravenously to BALB/c mice at Day −7. On Day 0, OVA323-339-PLG particles and Complete Freund's Adjuvant (CFA) were administered subcutaneously to the mice. The animals were re-stimulated with either MOG35-55-PLG or OVA323-339-PLG particles on Day 10 and the draining lymph node cells were isolated. The CPM and levels of IL-17, GM-CSF, IFN-γ, IL-10, and IL-4 were measured at Day 10.

[4] = tested on: spleen, liver and lung; macrophages; experiment: detection and cellular localisation of particles after iv administration; details: 24 hours after intravenous infusion
Text: Naïve uninjected mouse (top row) as compared to i.v. fluorescent PLGA/PEMA microparticle injected mouse spleen (left column), liver (middle column) and lung (left column) sections at 3-hours post injection (middle row) and 24-hours (bottom row) post-injection, counterstained with DAPI.

Substance | staining for CD45, CD4, and CD11b [1] | prevention of disease induction [2] | Th1 and Th17 responses [3] | cells taking up particles [4]
OVA323-339-PLG: control peptide OVA323-339 coupled to PLG particles (KISQAVHAAHAEINEAG; also: coupled to PLG particles; UniProt P01012 323-339, looked up, fragment) | positive staining | did not prevent disease induction | inhibited the Th1 and Th17 responses | 
TAMRA-labeled PLP139-151-coupled particles: particles coupled with TAMRA-labeled PLP139-151 (CHCLGKWLGHPDK; cysteine pairing not given here; also: TAMRA label, position not given here, coupled to particles; UniProt P60202 139-151, looked up, fragment) |  |  |  | marginal zone macrophages predominantly uptake
